Laboratory results from patent US20040018579A1, “Dye-labelled peptide and method” (priority 2000, published 2004).
No end group written: not given here. Cy5Q = cyanine dye quencher coupled to the N-terminus (from Cy5Q-NHS)

Test system: AspN
Assay: Endoproteinase AspN cleavage assay
Assay type: biochemical
Conditions: 2 μM, 500 μl, AspN 100 ng, overnight at ambient temperature, excitation 520 nm, emission 540-750 nm
Experimental: The fluorescence intensity of compound A (2 μM, 500 μl volume) in a quartz cuvette was recorded using a spectrofluorimeter. The sample was excited at 520 nm and emission over 540-750 nm recorded. AspN (100 ng, 50 μl volume) was added to the sample in the cuvette, which was stoppered, and kept dark at ambient temperature overnight. The fluorescence intensity was again recorded. […] Tween™ is a trademark of ICI Americas, Inc.

- Cy3 fluorescence on AspN-catalysed hydrolysis: increase in Cy3 fluorescence
Substance: Cy5Q -Asp-Glu-Val-Asp-Arg-Ser-Gly-Ser-Gly-Ser-Cy3-Ala-Leu-Thr-OH (Cy5Q-DEVDRSGSGS; not fully specified (C-terminus)) [Compound A]
